Experimental data: BigSolDB 2.1

C[C@H]1[C@H](OC(=O)CCC(=O)O)O[C@@H]2O[C@@]3(C)CC[C@H]4[C@H](C)CC[C@@H]1[C@@]24OO3
Details	solubility (mole fraction)
in ethanol, 283.06 K	0.0113
in ethanol, 288.14 K	0.0136
in ethanol, 293.19 K	0.0168
in ethanol, 298.24 K	0.0208
in ethanol, 303.21 K	0.0263
in ethanol, 308.16 K	0.0334
in ethanol, 313.14 K	0.0423
in ethanol, 318.22 K	0.0536
in ethanol, 323.2 K	0.0657
in ethyl acetate, 283.17 K	0.0199
in ethyl acetate, 288.17 K	0.0221
in ethyl acetate, 293.16 K	0.0246
in ethyl acetate, 298.14 K	0.0278
in ethyl acetate, 303.17 K	0.0309
in ethyl acetate, 308.14 K	0.0344
in ethyl acetate, 313.17 K	0.0382
in ethyl acetate, 318.16 K	0.0423
in ethyl acetate, 323.19 K	0.0473
in isobutanol, 283.14 K	0.00543
in isobutanol, 288.07 K	0.00698
in isobutanol, 293.14 K	0.00912
in isobutanol, 298.1 K	0.0118
in isobutanol, 303.05 K	0.0155
in isobutanol, 308.08 K	0.0196
in isobutanol, 313.07 K	0.0252
in isobutanol, 318.05 K	0.0325
in isobutanol, 323.15 K	0.0408
in isopentanol, 283.16 K	0.00573
in isopentanol, 288.17 K	0.00721
in isopentanol, 293.14 K	0.00915
in isopentanol, 298.16 K	0.0119
in isopentanol, 303.16 K	0.0151
in isopentanol, 308.14 K	0.0194
in isopentanol, 313.17 K	0.0244
in isopentanol, 318.16 K	0.031
in isopentanol, 323.16 K	0.0397
in isopropanol, 283.06 K	0.00541
in isopropanol, 288.14 K	0.00717
in isopropanol, 293.19 K	0.00965
in isopropanol, 298.24 K	0.012
in isopropanol, 303.21 K	0.016
in isopropanol, 308.16 K	0.0209
in isopropanol, 313.14 K	0.0276
in isopropanol, 318.22 K	0.0362
in isopropanol, 323.2 K	0.047
in isopropyl acetate, 283.17 K	0.0122
in isopropyl acetate, 288.19 K	0.0135
in isopropyl acetate, 293.2 K	0.0149
in isopropyl acetate, 298.14 K	0.0167
in isopropyl acetate, 303.19 K	0.0186
in isopropyl acetate, 308.16 K	0.0206
in isopropyl acetate, 313.14 K	0.0229
in isopropyl acetate, 318.14 K	0.0258
in isopropyl acetate, 323.2 K	0.029
in methyl propionate, 283.19 K	0.0207
in methyl propionate, 288.22 K	0.0232
in methyl propionate, 293.23 K	0.0258
in methyl propionate, 298.17 K	0.0286
in methyl propionate, 303.23 K	0.0318
in methyl propionate, 308.14 K	0.0355
in methyl propionate, 313.24 K	0.0395
in methyl propionate, 318.16 K	0.0442
in methyl propionate, 323.18 K	0.0497
in n-butanol, 283.14 K	0.00719
in n-butanol, 288.07 K	0.00886
in n-butanol, 293.14 K	0.0112
in n-butanol, 298.1 K	0.0143
in n-butanol, 303.05 K	0.0181
in n-butanol, 308.08 K	0.0233
in n-butanol, 313.07 K	0.0298
in n-butanol, 318.05 K	0.0379
in n-butanol, 323.15 K	0.0485
in n-butyl acetate, 283.17 K	0.012
in n-butyl acetate, 288.19 K	0.0135
in n-butyl acetate, 293.2 K	0.015
in n-butyl acetate, 298.14 K	0.0168
in n-butyl acetate, 303.19 K	0.0191
in n-butyl acetate, 308.16 K	0.0213
in n-butyl acetate, 313.14 K	0.0237
in n-butyl acetate, 318.14 K	0.0269
in n-butyl acetate, 323.2 K	0.0304
in n-pentanol, 283.23 K	0.0111
in n-pentanol, 288.23 K	0.0137
in n-pentanol, 293.29 K	0.017
in n-pentanol, 298.5 K	0.0216
in n-pentanol, 303.24 K	0.0266
in n-pentanol, 308.02 K	0.0328
in n-pentanol, 313.08 K	0.0408
in n-pentanol, 318.05 K	0.0491
in n-pentanol, 323.1 K	0.0594
in n-pentyl acetate, 283.14 K	0.00918
in n-pentyl acetate, 288.24 K	0.0104
in n-pentyl acetate, 293.3 K	0.0117
in n-pentyl acetate, 298.28 K	0.0133
in n-pentyl acetate, 303.24 K	0.0149
in n-pentyl acetate, 308.22 K	0.0168
in n-pentyl acetate, 313.13 K	0.0191
in n-pentyl acetate, 318.18 K	0.0216
in n-pentyl acetate, 323.24 K	0.0244
in n-propanol, 283.14 K	0.00832
in n-propanol, 288.07 K	0.0103
in n-propanol, 293.14 K	0.013
in n-propanol, 298.08 K	0.0163
in n-propanol, 303.02 K	0.0207
in n-propanol, 308.05 K	0.0264
in n-propanol, 313.03 K	0.034
in n-propanol, 318.05 K	0.0427
in n-propanol, 323.05 K	0.0542
in n-propyl acetate, 283.16 K	0.0159
in n-propyl acetate, 288.24 K	0.0176
in n-propyl acetate, 293.16 K	0.0194
in n-propyl acetate, 298.18 K	0.0216
in n-propyl acetate, 303.16 K	0.024
in n-propyl acetate, 308.16 K	0.0269
in n-propyl acetate, 313.18 K	0.0302
in n-propyl acetate, 318.16 K	0.0336
in n-propyl acetate, 323.16 K	0.0375
